Target: human Edg-2 receptor (LPA1 receptor) (Homo sapiens, UniProt Q92633)
Assay: Edg-2 receptor inhibition by FLIPR calcium fluorescence measurement (LPA-mediated calcium liberation)
Format: cell-based
Settings: CHO cells stably overexpressing human Edg-2 receptor; LPA 18:1 100 nM; fluo-4 fluorescence; triplicate; read-out: Inhibitory concentrations IC50 for inhibition of the Edg-2 receptor
Experimental: A) Determination of Edg-2 Receptor Inhibition by Fluorescence Imaging Plate Reader (FLIPR) Measurements
The inhibition of the Edg-2 receptor (LPA1 receptor) by the compounds of the invention was quantified by the inhibitory effect on the LPA-mediated calcium liberation in a cell-based calcium fluorescence assay by use of Chinese hamster ovarian (CHO) cells in which the human Edg-2 receptor was stably overexpressed (FIp-In system, Invitrogen). […] Changes in intracellular calcium were determined by fluorescence measurement with the calcium-sensitive dye fluo-4 (Invitrogen) in a fluorescence imaging plate reader (FLIPR, […]).
CHO cells stably overexpressing the human Edg-2 receptor were seeded (40.000 per well) in black clear-bottomed poly-D-lysine-coated 96 well plates (Becton Dickinson, Biocoat cellware) approximately 18-24 h prior to the experiments. Cells were grown in an incubator at 37° C., 5% carbon dioxide and 95% humidity in cell culture media based on F-12 glutamax media (Gibco, #31765) supplemented with 1% (vol/vol) penicilline/streptomycine (PAN, #P06-07100), 10% (vol/vol) fetal calf serum (FCS, PAA, #A15-151) and hygromycin B (Invitrogen, #10687-010) 300 mg/l (final concentrations).
Prior to the FLIPR experiment, cells were loaded with fluo-4 acetoxymethyl ester (fluo-4 AM, Invitrogen, #F14202) for 60 min in an incubator at 37° C., 5% carbon dioxide and 95% humidity in dye-loading buffer consisting of Hanks' Balanced Salt Solution (HBSS, Invitrogen, #14065049) supplemented with fluo-4 AM at 2 μM (all data given for final concentration), Pluronic® F-127 0.05% (vol/vol) (Invitrogen, #P-3000 MP), HEPES 20 mM (Gibco, #15630), probenecid 2.5 mM (Sigma, #P-8761) and bovine serum albumin 0.05% (BSA, Sigma, #A-6003), adjusted to pH 7.5 with sodium hydroxide. During cell loading, fluo-4 AM is cleaved by intracellular esterase resulting in trapping of the dye fluo-4 within the cells. Loading was terminated by washing of the cells in a cell washer (Tecan Power washer) three times with the buffer specified afore but without fluo-4 AM and BSA. This latter buffer was also used as the buffer in the subsequent cell fluorescence measurements.
The dye-loaded and washed cells were pre-incubated for approximately 5 min with various concentrations of the test compound added as a solution in DMSO (0.3% vol/vol maximum final concentration of DMSO), or with DMSO in the respective concentration only (positive control). Subsequent addition of LPA (18:1, 1-oleoyl-sn-glycerol 3-phosphate; 100 nM final concentration) leads to liberation of intracellular calcium from internal stores resulting in a large transient increase of the fluo-4 fluorescence signal which was monitored over approximately 3 min. The percent inhibition caused by the test compound was determined from the maximum fluorescence response after LPA addition to cells pre-incubated with the compound as compared to the maximum fluorescence response after LPA addition to cells pre-incubated with DMSO only. All fluorescence values were corrected for the baseline fluorescence values obtained with cells which were pre-incubated with DMSO only and were not treated with LPA (baseline control). All measurements were performed in triplicate. From the percent inhibitions the inhibitory concentration IC50 was determined.

Sequence of human Edg-2 receptor (LPA1 receptor) (Q92633 whole entry): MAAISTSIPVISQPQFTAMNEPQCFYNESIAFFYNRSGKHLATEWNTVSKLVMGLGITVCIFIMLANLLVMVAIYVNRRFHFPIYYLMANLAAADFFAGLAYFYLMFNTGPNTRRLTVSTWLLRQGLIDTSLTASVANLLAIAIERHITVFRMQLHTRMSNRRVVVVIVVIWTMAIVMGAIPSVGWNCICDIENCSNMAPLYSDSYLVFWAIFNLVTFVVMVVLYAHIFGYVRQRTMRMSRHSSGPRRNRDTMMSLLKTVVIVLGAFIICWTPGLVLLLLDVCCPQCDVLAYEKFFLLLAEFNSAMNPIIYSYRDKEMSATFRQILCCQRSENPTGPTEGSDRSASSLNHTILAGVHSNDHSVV

IC50	Structure (SMILES)
< 100 nM	COc1ccc(C(=O)NC2(C(=O)O)Cc3ccccc3C2O)cc1OCCc1cccc(C)c1 (single isomer, unassigned) [Example 220, 1-Hydroxy-2-[4-methoxy-3-(2-m-tolyl-ethoxy)-benzoylamino]-indane-2-carboxylic acid]
< 100 nM	Cc1cccc(CCOc2cc(C(=O)NC3(C(=O)O)Cc4ccccc4C3)ccc2Br)c1 [Example 2, 2-[4-Bromo-3-(2-m-tolyl-ethoxy)-benzoylamino]-indane-2-carboxylic acid]
< 100 nM	CSc1ccc(C(=O)NC2(C(=O)O)Cc3ccccc3C2)cc1OCCc1cccc(C)c1 [Example 4, 2-[4-Methylsulfanyl-3-(2-m-tolyl-ethoxy)-benzoylamino]-indane-2-carboxylic acid]
1000 to 30000 nM	Cc1cccc(CCOc2cc(C(=O)NC3(C(=O)O)Cc4ccccc4C3)ccc2[S+](C)[O-])c1 (stereo not shown) [Example 5, 2-[4-Methanesulfinyl-3-(2-m-tolyl-ethoxy)-benzoylamino]-indane-2-carboxylic acid]
1000 to 30000 nM	Cc1cccc(CCOc2cc(C(=O)NC3(C(=O)O)Cc4ccccc4C3)ccc2S(C)(=O)=O)c1 [Example 6, 2-[4-Methanesulfonyl-3-(2-m-tolyl-ethoxy)-benzoylamino]-indane-2-carboxylic acid]
100 to 1000 nM	CC(=O)c1ccc(C(=O)NC2(C(=O)O)Cc3ccccc3C2)cc1OCCc1cccc(C)c1 [Example 8, 2-[4-Acetyl-3-(2-m-tolyl-ethoxy)-benzoylamino]-indane-2-carboxylic acid]
100 to 1000 nM	Cc1cccc(CCOc2cc(C(=O)NC3(C(=O)O)Cc4ccccc4C3)ccc2C(C)O)c1 (stereo not shown) [Example 9, 2-[4-(1-Hydroxy-ethyl)-3-(2-m-tolyl-ethoxy)-benzoylamino]-indane-2-carboxylic acid]
< 100 nM	CCc1ccc(C(=O)NC2(C(=O)O)Cc3ccccc3C2)cc1OCCc1cccc(C)c1 [Example 10, 2-[4-Ethyl-3-(2-m-tolyl-ethoxy)-benzoylamino]-indane-2-carboxylic acid]
< 100 nM	Cc1cccc(CCOc2cc(C(=O)NC3(C(=O)O)Cc4ccccc4C3)ccc2C(C)F)c1 (stereo not shown) [Example 11, 2-[4-(1-Fluoro-ethyl)-3-(2-m-tolyl-ethoxy)-benzoylamino]-indane-2-carboxylic acid]
< 100 nM	CCOc1ccc(C(=O)NC2(C(=O)O)Cc3ccccc3C2)cc1OCCc1cccc(C)c1 [Example 12, 2-[4-Ethoxy-3-(2-m-tolyl-ethoxy)-benzoylamino]-indane-2-carboxylic acid]
< 100 nM	COc1ccc(C(=O)NC2(C(=O)O)Cc3ccccc3C2)cc1OCCc1cccc(C)c1 [Example 14, 2-[4-Methoxy-3-(2-m-tolyl-ethoxy)-benzoylamino]-indane-2-carboxylic acid]
< 100 nM	COc1ccc(C(=O)NC2(C(=O)O)Cc3ccccc3C2)cc1OCCc1cccc(SC)c1 [Example 16, 2-{4-Methoxy-3-[2-(3-methylsulfanyl-phenyl)-ethoxy]-benzoylamino}-indane-2-carboxylic acid]
1000 to 30000 nM	COc1ccc(C(=O)NC2(C(=O)O)Cc3ccccc3C2)cc1OCCc1cccc([S+](C)[O-])c1 (stereo not shown) [Example 17, 2-{3-[2-(3-Methanesulfinyl-phenyl)-ethoxy]-4-methoxy-benzoylamino}-indane-2-carboxylic acid]
1000 to 30000 nM	COc1ccc(C(=O)NC2(C(=O)O)Cc3ccccc3C2)cc1OCCc1cccc(S(C)(=O)=O)c1 [Example 18, 2-{3-[2-(3-Methanesulfonyl-phenyl)-ethoxy]-4-methoxy-benzoylamino}-indane-2-carboxylic acid]
< 100 nM	COc1ccc(C(=O)NC2(C(=O)O)Cc3ccccc3C2)cc1OCCc1cccc(SC(F)(F)F)c1 [Example 19]
< 100 nM	COc1ccc(C(=O)NC2(C(=O)O)Cc3ccccc3C2)cc1OCCc1cc(C)ccc1F [Example 20]
< 100 nM	COc1ccc(C(=O)NC2(C(=O)O)Cc3ccccc3C2)cc1OCCc1cccc(C2CC2)c1 [Example 21, 2-{3-[2-(3-cyclopropyl-phenyl)-ethoxy]-4-methoxy-benzoylamino}-indane-2-carboxylic acid]
1000 to 30000 nM	COc1ccc(C(=O)NC2(C(=O)O)Cc3ccccc3C2)cc1OCCc1cc(C)cc(C)c1 [Example 22]
< 100 nM	CCc1cccc(CCOc2cc(C(=O)NC3(C(=O)O)Cc4ccccc4C3)ccc2OC)c1 [Example 23]
< 100 nM	COc1ccc(C(=O)NC2(C(=O)O)Cc3ccccc3C2)cc1OCC1(c2cccc(C)c2)CC1 [Example 24]
< 100 nM	COc1ccc(C(=O)NC2(C(=O)O)Cc3ccccc3C2)cc1OCCc1cccc(C(C)C)c1 [Example 25]
1000 to 30000 nM	COc1ccc(C(=O)NC2(C(=O)O)Cc3ccccc3C2)cc1OCCc1ccc(C#N)cc1 [Example 26]
1000 to 30000 nM	COCCOCCOc1cc(C(=O)NC2(C(=O)O)Cc3ccccc3C2)ccc1OC [Example 28]
1000 to 30000 nM	CCOc1ccc(COc2cc(C(=O)NC3(C(=O)O)Cc4ccccc4C3)ccc2OC)cc1 [Example 29]
1000 to 30000 nM	COc1ccc(C(=O)NC2(C(=O)O)Cc3ccccc3C2)cc1OCCC1CCCCC1 [Example 30]

IC50	Structure (SMILES)
1000 to 30000 nM	COc1ccc(C(=O)NC2(C(=O)O)Cc3ccccc3C2)cc1OCCc1c[nH]c2ccccc12 [Example 32]
1000 to 30000 nM	COCCOc1cc(C(=O)NC2(C(=O)O)Cc3ccccc3C2)ccc1OC [Example 33]
1000 to 30000 nM	COc1ccc(C(=O)NC2(C(=O)O)Cc3ccccc3C2)cc1OCCCCc1ccccc1 [Example 34]
1000 to 30000 nM	COc1ccc(C(=O)NC2(C(=O)O)Cc3ccccc3C2)cc1OCC(C)C [Example 35]
1000 to 30000 nM	COc1ccc(C(=O)NC2(C(=O)O)Cc3ccccc3C2)cc1OCCC(C)C [Example 36]
1000 to 30000 nM	COc1ccc(C(=O)NC2(C(=O)O)Cc3ccccc3C2)cc1OCC(C)(C)C [Example 37]
1000 to 30000 nM	COc1ccc(C(=O)NC2(C(=O)O)Cc3ccccc3C2)cc1OCC1CCOC1 (stereo not shown) [Example 38]
1000 to 30000 nM	COc1ccc(C(=O)NC2(C(=O)O)Cc3ccccc3C2)cc1OCc1ccc(Cl)cc1 [Example 39]
1000 to 30000 nM	COc1ccc(C(=O)NC2(C(=O)O)Cc3ccccc3C2)cc1OCc1ccc(C(C)(C)C)cc1 [Example 40]
1000 to 30000 nM	CCc1ccc(COc2cc(C(=O)NC3(C(=O)O)Cc4ccccc4C3)ccc2OC)cc1 [Example 41]
1000 to 30000 nM	COc1ccc(C(=O)NC2(C(=O)O)Cc3ccccc3C2)cc1OCC1CCCC1 [Example 42]
1000 to 30000 nM	COc1ccc(C(=O)NC2(C(=O)O)Cc3ccccc3C2)cc1OCCCC(C)C [Example 43]
1000 to 30000 nM	COc1ccc(C(=O)NC2(C(=O)O)Cc3ccccc3C2)cc1OCCc1cccc2ccccc12 [Example 44]
1000 to 30000 nM	COc1ccc(C(=O)NC2(C(=O)O)Cc3ccccc3C2)cc1OC/C=C/c1ccccc1 [Example 45]
1000 to 30000 nM	COc1ccc(C(=O)NC2(C(=O)O)Cc3ccccc3C2)cc1OCCc1ccccc1C(F)(F)F [Example 47]
1000 to 30000 nM	COc1ccc(C(=O)NC2(C(=O)O)Cc3ccccc3C2)cc1OCC1CCCN(C)C1 (stereo not shown) [Example 48]
1000 to 30000 nM	CCN(CC)CCCOc1cc(C(=O)NC2(C(=O)O)Cc3ccccc3C2)ccc1OC [Example 49]
100 to 1000 nM	COc1ccc(C(=O)NC2(C(=O)O)Cc3ccccc3C2)cc1OCC1CC=CCC1 (stereo not shown) [Example 50]
1000 to 30000 nM	COc1ccc(C(=O)NC2(C(=O)O)Cc3ccccc3C2)cc1OCc1nccc(Cl)c1OC [Example 52]
1000 to 30000 nM	COc1ccc(C(=O)NC2(C(=O)O)Cc3ccccc3C2)cc1OCCCC1CC(c2ccccc2)=NO1 (stereo not shown) [Example 53]
1000 to 30000 nM	COc1ccc(C(=O)NC2(C(=O)O)Cc3ccccc3C2)cc1OCCc1cc(-c2ccc(Cl)cc2)no1 [Example 54]
1000 to 30000 nM	COc1ccnc(COc2cc(C(=O)NC3(C(=O)O)Cc4ccccc4C3)ccc2OC)c1 [Example 55]
1000 to 30000 nM	CCC1(COc2cc(C(=O)NC3(C(=O)O)Cc4ccccc4C3)ccc2OC)COCOC1 [Example 56]
1000 to 30000 nM	COc1ccc(C(=O)NC2(C(=O)O)Cc3ccccc3C2)cc1OCC1CCC(C)CC1 (stereo not shown) [Example 57]

Reference: patent US8802720B2, “Acylamino-substituted fused cyclopentanecarboxylic acid derivatives and their use as pharmaceuticals” (SANOFI, priority 2008, dated 2014)
